Values quoted from earlier work as cited in patent publication US7390502B2, “SN-38 lipid complexes and their methods of use” (NeoPharm, Inc., priority 2000, dated 2008).

Key:
[1] = aqueous solutions / water
[2] = system: topoisomerase I purified from human and rodent tumor cell lines; details: versus irinotecan; enzyme purified from human and rodent tumor cell lines
[3] = versus irinotecan
[4] = tends to precipitate into aqueous phase

Compound: CCc1c2c(nc3ccc(O)cc13)-c1cc3c(c(=O)n1C2)COC(=O)[C@]3(O)CC [SN-38, 7-ethyl-10-hydroxycamptothecin]
- solubility in aqueous solutions [1]: exceedingly insoluble
- potency relative to irinotecan as an inhibitor of topoisomerase I [2]: approximately 1000 times
- potency relative to irinotecan in in vitro cytotoxicity assays [3]: up to 2,000 fold
- affinity for lipid membranes [4]: low affinity
